Tests used:
Format in all cases: biochemical
Details in all cases: TR-FRET coactivator (SRC-1) recruitment
[1] = target: T1, PPARα receptor (GST-hPPARα LBD) (Homo sapiens, UniProt Q07869); test: PPARα functional binding assay (CARLA, TR-FRET)
T1 construct: made in house; host or cells: E. coli BL21 (DE3), pGEX vector
T1 sequence (Q07869 167-468): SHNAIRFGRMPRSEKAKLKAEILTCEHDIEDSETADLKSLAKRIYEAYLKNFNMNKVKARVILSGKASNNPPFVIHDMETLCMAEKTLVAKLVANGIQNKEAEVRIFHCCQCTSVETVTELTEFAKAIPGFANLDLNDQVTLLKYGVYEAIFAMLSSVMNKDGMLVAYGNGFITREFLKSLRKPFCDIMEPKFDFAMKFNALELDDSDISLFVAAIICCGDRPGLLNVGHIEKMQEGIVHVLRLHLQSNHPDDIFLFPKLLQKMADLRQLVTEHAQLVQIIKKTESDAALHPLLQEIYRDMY
Method: (§1) The in vitro functional binding to the PPARα, PPARδ and PPARγ receptors is determined as follows:
(§2) The functional binding assays for the PPARα, PPARδ and PPARγ receptors are a variation of the coactivator-dependent receptor ligand assay (CARLA) (see Krey et al., “Fatty Acids, Eicosanoids, and Hypolipidemic Agents Identified as Ligands of Peroxisome Proliferator-Activated Receptors by Coactivator-Dependent Receptor Ligand Assay”, Molecular Endocrinology, Vol. 11, pp. 779–791 (1997)). The present CARLA assays use a TR-FRET detection method previously reviewed (see Hemmila, “LANCE: Homogeneous Assay Platform for HTS”, J. Biomol. Screening, Vol. 4, pp. 303–307 (1999); Mathis, “HTRF Technology”, J. Biomol. Screening, Vol. 4, pp. 309–313 (1999)). All assays included 3 nM of the glutathione-S-transferase (GST) fusion proteins of either the hPPARα ligand binding domain (LBD) (amino acids 167–468) (GST-hPPARα LBD), GST-hPPARδ LBD (amino acids 139–442) or GST-hPPARγ LBD (amino acids 175–476); 3 nM Eu-labeled anti-GST antibody (Wallac); 30 nM biotinylated steroid receptor coactivator-1 (SRC-1) peptide (an N-terminal biotinylated peptide, […], derived from amino acids 676–700 of SRC-1); and 10 nM streptavidin-labelled allophycocyanin (APC; Prozyme). The binding of a ligand to a PPAR LBD alters the conformation of the LBD and permits the biotinylated SRC-1 peptide to bind. This brings the Eu-labeled anti-GST antibody and the strepavidin-labeled APC in close proximity, thereby facilitating fluorescence energy transfer. The biotinylated SRC-1 peptide is prepared by standard solid-phase peptide synthetic methods. The GST-PPAR LBDs are expressed in pGEX vectors (Amersham Pharmacia) in the E. coli strain BL21 (DE3) using standard expression conditions at 18° C. In some cases the GST-PPAR LBDs are co-expressed with groESL. […] After mixing all components, the reaction mixture stands for 3 hours at room temperature before reading the TR-FRET (Time-Resolved Fluorescence Resonance Energy Transfer) signal on a Wallac Victor 2 plate reader (measuring the ratio of signals at […]). […]

[2] = target: T2, PPARγ receptor (GST-hPPARγ LBD) (Homo sapiens, UniProt P37231); test: PPARγ functional binding assay (CARLA, TR-FRET)
T2 construct: GST-hPPARγ LBD (amino acids 175–476); made in house; host or cells: E. coli BL21 (DE3), pGEX vector
T2 sequence (P37231 175-476 isoform P37231-2): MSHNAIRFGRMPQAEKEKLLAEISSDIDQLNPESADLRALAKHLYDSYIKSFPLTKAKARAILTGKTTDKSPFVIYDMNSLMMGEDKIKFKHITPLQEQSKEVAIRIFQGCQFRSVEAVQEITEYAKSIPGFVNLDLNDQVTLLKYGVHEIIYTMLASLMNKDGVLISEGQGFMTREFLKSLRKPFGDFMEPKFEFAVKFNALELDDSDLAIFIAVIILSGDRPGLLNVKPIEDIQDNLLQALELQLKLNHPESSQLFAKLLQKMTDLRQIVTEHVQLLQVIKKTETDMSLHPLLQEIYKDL
Method: as §1, §2

[3] = target: T3, PPARδ receptor (GST-hPPARδ LBD) (Homo sapiens, UniProt Q03181); test: PPARδ functional binding assay (CARLA, TR-FRET)
T3 construct: GST-hPPARδ LBD (amino acids 139–442); made in house; host or cells: E. coli BL21 (DE3), pGEX vector
T3 sequence (Q03181 139-441 limits assumed): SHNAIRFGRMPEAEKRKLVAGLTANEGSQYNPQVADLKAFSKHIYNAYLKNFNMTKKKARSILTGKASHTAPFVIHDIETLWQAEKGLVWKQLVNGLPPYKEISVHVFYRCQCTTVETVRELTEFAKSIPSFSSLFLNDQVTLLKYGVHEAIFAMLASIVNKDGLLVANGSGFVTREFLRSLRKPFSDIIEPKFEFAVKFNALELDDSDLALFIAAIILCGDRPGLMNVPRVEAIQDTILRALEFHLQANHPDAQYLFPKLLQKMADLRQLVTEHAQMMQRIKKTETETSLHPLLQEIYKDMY
T3 sequence (Q15788 676-700 partner limits assumed): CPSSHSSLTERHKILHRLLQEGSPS
Method: as §1, §2

| EC50 [1] [µM] | EC50 [2] [µM] | EC50 [3] [µM] | SMILES |
| --- | --- | --- | --- |
| ~0.003 | ~0.003 | ~1.25 | Cc1oc(-c2ccccc2)nc1COc1ccc(S(=O)(=O)N2CC[C@@H]2C(=O)O)cc1 [Example 5–10, (R)-1-[4-(5-Methyl-2-phenyl-oxazol-4-ylmethoxy)-benzenesulfonyl]-azetidine-2-carboxylic acid] |
| ~0.007 | ~0.002 | ~1.16 | Cc1oc(-c2ccccc2)nc1COc1ccc(S(=O)(=O)N2CCC[C@@H]2C(=O)O)cc1 [Example 6–39, (R)-1-[4-(5-Methyl-2-phenyl-oxazol-4-ylmethoxy)-benzenesulfonyl]-pyrrolidine-2-carboxylic acid] |
| ~0.027 | ~0.023 | ~0.173 | CCCc1cc(Oc2ccccc2)ccc1OCCCOc1ccc(S(=O)(=O)N2c3ccccc3C[C@@H]2C(=O)O)cc1 [Example 1, (R)-1-{4-[3-(4-Phenoxy-2-propyl-phenoxy)-propoxy]-benzenesulfonyl}-2,3-dihydro-1H-indole-2-carboxylic acid] |
